Results from US7173034B2, “Respiratory syncytial virus replication inhibitors” (Janssen Pharmaceutica, N.V., priority 1999, dated 2007).

How the values were obtained:
[1] = system: Respiratory Syncytial Virus; test: microbe, parasite or virus in culture; assay type: cell-based; conditions: for SI (selectivity index, CC50 divided by IC50): CC50 (HeLa cells) / IC50 (Respiratory Syncytial Virus); for IC50: human respiratory syncytial virus, 168 h, Respiratory Syncytial Virus in HeLa cells, seven days after infection, tetrazolium-based colorimetric assay, read-out: IC50 (antiviral activity, protection against cytopathology caused by virus)
Procedure: (§1) The percent protection against cytopathology caused by viruses (antiviral activity or IC50) achieved by tested compounds and their cytotoxicity (CC50) were both calculated from dose-response curves.
Automated tetrazolium-based colorimetric assays were used for determination of IC50 and CC50 of test compounds. Flat-bottom, 96-well plastic microtiter trays were filled with 180 μl of Eagle's Basal Medium, supplemented with 5% FCS (0% for FLU) and 20 mM Hepes buffer. Subsequently, stock solutions (7.8× final test concentration) of compounds were added in 45 μl volumes to a series of triplicate wells so as to allow simultaneous evaluation of their effects on virus- and mock-infected cells. Five five-fold dilutions were made directly in the microtiter trays using a robot system. Untreated virus controls, and HeLa cell controls were included in each test. Approximately 100 TCID50 of Respiratory Syncytial Virus was added to two of the three rows in a volume of 50 μl. The same volume of medium was added to the third row to measure the cytotoxicity of the compounds at the same concentrations as those used to measure the antiviral activity. After two hours of incubation, a suspension (4×10^5 cells/ml) of HeLa cells were added to all wells in a volume of 50 μl. The cultures were incubated at 37° C. in a 5% CO2 atmosphere. Seven days after infection the cytotoxicity and the antiviral activity was examined spectrophotometrically. To each well of the microtiter tray, 25 μl of a solution of MTT (3-(4,5-dimethylthiazol-2-yl)-2,5-diphenyltetrazolium bromide) was added. The trays were further incubated at 37° C. for 2 hours, after which the medium was removed from each cup. Solubilization of the formazan crystals was achieved by adding 100 μl 2-propanol. Complete dissolution of the formazan crystals were obtained after the trays have been placed on a plate shaker for 10 min. Finally, the absorbances were read in an eight-channel computer-controlled photometer (Multiskan MCC, Flow Laboratories) at two wavelengths (540 and 690 nm). The absorbance measured at 690 nm was automatically subtracted from the absorbance at 540 nm, so as to eliminate the effects of non-specific absorption.

[2] = Cytotoxicity in mock-infected HeLa cells (tetrazolium/MTT colorimetric assay); assay type: cell-based; conditions: human
Procedure: as §1
Automated tetrazolium-based colorimetric assays were used for determination of IC50 and CC50 of test compounds. Flat-bottom, 96-well plastic microtiter trays were filled with 180 μl of Eagle's Basal Medium, supplemented with 5% FCS (0% for FLU) and 20 mM Hepes buffer. Subsequently, stock solutions (7.8× final test concentration) of compounds were added in 45 μl volumes to a series of triplicate wells so as to allow simultaneous evaluation of their effects on virus- and mock-infected cells. Five five-fold dilutions were made directly in the microtiter trays using a robot system. Untreated virus controls, and HeLa cell controls were included in each test. Approximately 100 TCID50 of Respiratory Syncytial Virus was added to two of the three rows in a volume of 50 μl. […] Finally, the absorbances were read in an eight-channel computer-controlled photometer (Multiskan MCC, Flow Laboratories) at two wavelengths (540 and 690 nm). The absorbance measured at 690 nm was automatically subtracted from the absorbance at 540 nm, so as to eliminate the effects of non-specific absorption.

O=CNCCN1CCC(Nc2nc3ccccc3n2Cc2ccccn2)CC1 [Compound 18]
melting point: 146 °C

CCC(CN)N1CCC(Nc2nc3ccccc3n2Cc2ccccn2)CC1 (centres unmarked) [Compound 23]
melting point: 112 °C

CC(C)C(N)CN1CCC(Nc2nc3ccccc3n2Cc2ccccn2)CC1 (centres unmarked) [Compound 24]
melting point: 115 °C

Cc1ccc(OCCO)c(Cn2c(NC3CCN(CCN)CC3)nc3ccccc32)n1 [Compound 27]
SI (selectivity index, CC50 divided by IC50) [1]: >7943 | IC50 [1]: 12.6 nM | CC50 at 7 days [2]: > 100000 nM

CC(CN)N1CCC(Nc2nc3ccccc3n2C(C)c2ccccn2)CC1 (centres unmarked) [Compound 30]
melting point: 85 °C

NCCCCN1CCC(Nc2nc3ccccc3n2Cc2ccccn2)CC1 [Compound 31]
melting point: 94 °C

Cc1ccc(O)c(Cn2c(NC3CCN(CCN)CC3)nc3c(C)cccc32)n1 [Compound 357]
SI (selectivity index, CC50 divided by IC50) [1]: >79 | IC50 [1]: 0.13 nM | CC50 at 7 days ([2]; mock-infected HeLa cells, seven days, tetrazolium-based colorimetric assay): > 10 nM
